Laboratory results published in ChEMBL document CHEMBL1132329, “Synthesis and histone deacetylase inhibitory activity of new benzamide derivatives” (J Med Chem, 1999).

Target: Histone deacetylase
Test: Inhibitory activity against partially purified histone deacetylase of human leukemia K562 cells.
Assay type: cell-based

| Structure (SMILES) | IC50 [µM] |
| --- | --- |
| CCCC(=O)[O-].[Na+] [SODIUM BUTYRATE] | 140 |
| Nc1ccc(NC(=O)c2ccc(CNC(=O)OCc3cccnc3)cc2)cc1 | > 100 |
| Nc1ccc(Cl)cc1NC(=O)c1ccc(CNC(=O)OCc2cccnc2)cc1 | 7.7 |
| O=C(NCc1ccc(C(=O)Nc2ccccc2O)cc1)OCc1cccnc1 | 2.2 |
| CC(=O)Nc1ccccc1NC(=O)c1ccc(CNC(=O)OCc2cccnc2)cc1 | > 100 |
| Cc1ccc(NC(=O)c2ccc(CNC(=O)OCc3cccnc3)cc2)c(N)c1 | > 100 |
| COc1ccc(N)c(NC(=O)c2ccc(CNC(=O)OCc3cccnc3)cc2)c1 | 4.6 |
| Cc1ccc(N)c(NC(=O)c2ccc(CNC(=O)OCc3cccnc3)cc2)c1 | 2.8 |
| Nc1cccc(NC(=O)c2ccc(CNC(=O)OCc3cccnc3)cc2)c1 | > 100 |
| Cc1cccc(NC(=O)c2ccc(CNC(=O)OCc3cccnc3)cc2)c1N | > 100 |
| O=C(NCc1ccc(C(=O)Nc2ccccc2)cc1)OCc1cccnc1 | > 100 |
| COc1ccc(NC(=O)c2ccc(CNC(=O)OCc3cccnc3)cc2)c(N)c1 | 44 |
| Nc1cc(Cl)ccc1NC(=O)c1ccc(CNC(=O)OCc2cccnc2)cc1 | 40 |
| Nc1ccc(F)cc1NC(=O)c1ccc(CNC(=O)OCc2cccnc2)cc1 | 6 |
